According to patent publication US20140088192A1, “SUBCUTANEOUSLY INFUSIBLE LEVODOPA PRODRUG COMPOSITIONS AND METHODS OF INFUSION” (SynAgile Corporation, priority 2010, published 2014):

Assays:
[1] = pH change of LDEE.HCl solutions on holding; format: physicochemical; conditions: for pH: about 2.7 M
Method: An about 2.6 M LDEE.HCl pH 2.1 aqueous solution was prepared by dissolving 1.506 g LDEE in 1.3 mL of aqueous 5M HCl and adjusting the pH by adding 0.24 μL of 1 M HCl. […] After 24 hours, the pH was 2.0.
To determine whether hydrolysis of subcutaneously infusible solutions of 0.95 M and 0.48 M LDEE.HCl concentrations excessively lowers their pH or drives their LD concentration beyond the saturation point where LD could precipitate, their starting pH of less <3 adjusted by adding an about 1.5 M trisodium citrate solution, were kept at 40° C. for 24 hrs.

volunteer = experiment: Intramuscular / subcutaneous infusion of LDEE.HCl in human volunteers, local tolerability; format: in vivo; conditions: s.c. abdomen, 0.24 mL of 2.3 M pH 4.5 over about 90 min in 8 boluses
[2] = Precipitation of LD from / clarity of LDEE solutions on holding; conditions: for appearance of infused solution after storage: 2.3 M
Method: 150 mg of LDEE was dissolved in 3 mL of physiological saline (0.90% weight/volume of NaCl/water) at about 23° C., then at about 37° C. an additional amount of 22 mg of LDEE was added for a total LDEE concentration of about 57.3 mg/mL or about 0.25M.
At the ambient temperature of about 23° C., 226 mg of LDEE was dissolved in 1 mL of 1 M HCl. To the formed aqueous LDEE.HCl solution an additional amount of about 184 mg LDEE was added, followed by about 0.1 mL deionized water.
At the ambient temperature of about 23° C., about 113 mg of LDEE was dissolved in 1 mL of 1 M HCl. To the formed aqueous LDEE.HCl solution an additional amount of about 87 mg LDEE was added, followed by about 0.1 mL distilled water.
At the ambient temperature of about 23° C., about 226 mg of LDEE was dissolved in 1 mL of 1 M acetic acid. To the formed aqueous LDEE acetate salt solution an additional amount of about 168 mg LDEE was added. […] The pH of the resulting suspension was about 7.01 at about 26.4° C.
1.7 g of LDEE (7.5 millimoles) was dissolved in 1.405 mL of aqueous 5M HCl, then enough trisodium citrate was added to increase the pH to 5.5.
After flushing with nitrogen, the solution was kept for 7 days at 23±2° C. in a vial sealed with a grey elastomeric, substantially oxygen impermeable septum.

[3] = Hydrolysis of LDEE salts to LD in aqueous solution, monitored by HPLC; format: physicochemical

CCOC(=O)[C@@H](N)Cc1ccc(O)c(O)c1.Cl [LDEE.HCl, LDEE Hydrochloride]
pH of about 0.48M LDEE•HCl Solution ([1]; 40° C., 24 h, starting pH 5.31): 4.91 | pH of about 0.95M LDEE•HCl Solution ([1]; 40° C., 24 h, starting pH 5.6): 5.19 | pH of about 0.48M LDEE•HCl Solution ([1]; 40° C., 24 h, starting pH 5.61): 5.23 | pH after 24 hours ([1]; about 2.6 M, starting pH 2.1, 23±2° C.): 2.0 | pH ([1]; start pH about 4.49, 24 h at 40° C.): 4.2 | pH ([1]; start pH about 4.49, 48 h at 40° C.): 4.0 | nodule formation (volunteer): nor did it cause the formation of a nodule | appearance of infused solution after storage ([2]; citrate pH 4.5, 2.5 days at room temperature and 7 weeks in a refrigerator): colorless and clear | appearance of infused solution after storage ([2]; citrate pH 4.5, about 3 days at room temperature and about 3 months in a refrigerator): colorless and clear | precipitation of LD ([2]; about 0.7 M LDEE + LDEE.HCl, pH about 6.87, 37° C., 3 hours): no precipitation | precipitation of LD ([2]; about 0.7 M LDEE + LDEE.HCl, pH about 6.87, 37° C., 16 hours): extensive precipitation of LD | precipitation of LD ([2]; about 1.3 M LDEE + LDEE.HCl, pH about 6.75, 37° C., 3 hours): no precipitation | precipitation of LD ([2]; about 1.3 M LDEE + LDEE.HCl, pH about 6.75, 37° C., 16 hours): extensive precipitation of LD | LD/LDEE HPLC peak ratio ([3]; 0.48M LDEE•HCl, 40° C., 0 hrs, initial pH 4.2): 0.1292 | LD/LDEE HPLC peak ratio ([3]; 0.48M LDEE•HCl, 40° C., 0 hrs, initial pH 4.4): 0.1309 | LD/LDEE HPLC peak ratio ([3]; 0.48M LDEE•HCl, 40° C., 0 hrs, initial pH 4.6): 0.133 | LD/LDEE HPLC peak ratio ([3]; 0.48M LDEE•HCl, 40° C., 0 hrs, initial pH 4.8): 0.1352 | LD/LDEE HPLC peak ratio ([3]; 0.48M LDEE•HCl, 40° C., 0 hrs, initial pH 5): 0.1418 | LD/LDEE HPLC peak ratio ([3]; 0.48M LDEE•HCl, 40° C., 0 hrs, initial pH 5.3): 0.1547 | LD/LDEE HPLC peak ratio ([3]; 0.48M LDEE•HCl, 40° C., 0 hrs, initial pH 5.6): 0.1902 | LD/LDEE HPLC peak ratio ([3]; 0.48M LDEE•HCl, 40° C., 2 hrs, initial pH 4.2): 0.2171 | LD/LDEE HPLC peak ratio ([3]; 0.48M LDEE•HCl, 40° C., 2 hrs, initial pH 4.4): 0.2636 | LD/LDEE HPLC peak ratio ([3]; 0.48M LDEE•HCl, 40° C., 2 hrs, initial pH 4.6): 0.2998 | LD/LDEE HPLC peak ratio ([3]; 0.48M LDEE•HCl, 40° C., 2 hrs, initial pH 4.8): 0.3758 | LD/LDEE HPLC peak ratio ([3]; 0.48M LDEE•HCl, 40° C., 2 hrs, initial pH 5): 0.5202 | LD/LDEE HPLC peak ratio ([3]; 0.48M LDEE•HCl, 40° C., 2 hrs, initial pH 5.3): 0.8609 | LD/LDEE HPLC peak ratio ([3]; 0.48M LDEE•HCl, 40° C., 2 hrs, initial pH 5.6): 1.4028 | LD/LDEE HPLC peak ratio ([3]; 0.48M LDEE•HCl, 40° C., 6 hrs, initial pH 4.2): 0.3079 | LD/LDEE HPLC peak ratio ([3]; 0.48M LDEE•HCl, 40° C., 6 hrs, initial pH 4.4): 0.3994 | LD/LDEE HPLC peak ratio ([3]; 0.48M LDEE•HCl, 40° C., 6 hrs, initial pH 4.6): 0.4804 | LD/LDEE HPLC peak ratio ([3]; 0.48M LDEE•HCl, 40° C., 6 hrs, initial pH 4.8): 0.6546 | LD/LDEE HPLC peak ratio ([3]; 0.48M LDEE•HCl, 40° C., 6 hrs, initial pH 5): 0.9805 | LD/LDEE HPLC peak ratio ([3]; 0.48M LDEE•HCl, 40° C., 6 hrs, initial pH 5.3): 1.7239 | LD/LDEE HPLC peak ratio ([3]; 0.48M LDEE•HCl, 40° C., 6 hrs, initial pH 5.6): 2.8727 | LD/LDEE HPLC peak ratio ([3]; 0.48M LDEE•HCl, 40° C., 24 hrs, initial pH 4.2): 0.8294 | LD/LDEE HPLC peak ratio ([3]; 0.48M LDEE•HCl, 40° C., 24 hrs, initial pH 4.4): 1.1405 | LD/LDEE HPLC peak ratio ([3]; 0.48M LDEE•HCl, 40° C., 24 hrs, initial pH 4.6): 1.415 | LD/LDEE HPLC peak ratio ([3]; 0.48M LDEE•HCl, 40° C., 24 hrs, initial pH 4.8): 1.9804 | LD/LDEE HPLC peak ratio ([3]; 0.48M LDEE•HCl, 40° C., 24 hrs, initial pH 5): 3.0727 | LD/LDEE HPLC peak ratio ([3]; 0.48M LDEE•HCl, 40° C., 24 hrs, initial pH 5.3): 5.6312 | LD/LDEE HPLC peak ratio ([3]; 0.48M LDEE•HCl, 40° C., 24 hrs, initial pH 5.6): 9.6563 | LD/LDEE HPLC peak ratio ([3]; 0.95M LDEE•HCl, 40° C., 0 hrs, initial pH 4.2): 0.1238 | LD/LDEE HPLC peak ratio ([3]; 0.95M LDEE•HCl, 40° C., 0 hrs, initial pH 4.4): 0.1252 | LD/LDEE HPLC peak ratio ([3]; 0.95M LDEE•HCl, 40° C., 0 hrs, initial pH 4.6): 0.128 | LD/LDEE HPLC peak ratio ([3]; 0.95M LDEE•HCl, 40° C., 0 hrs, initial pH 4.8): 0.1354 | LD/LDEE HPLC peak ratio ([3]; 0.95M LDEE•HCl, 40° C., 0 hrs, initial pH 5): 0.1467 | LD/LDEE HPLC peak ratio ([3]; 0.95M LDEE•HCl, 40° C., 0 hrs, initial pH 5.3): 0.1628 | LD/LDEE HPLC peak ratio ([3]; 0.95M LDEE•HCl, 40° C., 0 hrs, initial pH 5.6): 0.1909 | LD/LDEE HPLC peak ratio ([3]; 0.95M LDEE•HCl, 40° C., 2 hrs, initial pH 4.2): 0.2073 | LD/LDEE HPLC peak ratio ([3]; 0.95M LDEE•HCl, 40° C., 2 hrs, initial pH 4.4): 0.2404 | LD/LDEE HPLC peak ratio ([3]; 0.95M LDEE•HCl, 40° C., 2 hrs, initial pH 4.6): 0.2994 | LD/LDEE HPLC peak ratio ([3]; 0.95M LDEE•HCl, 40° C., 2 hrs, initial pH 4.8): 0.3995 | LD/LDEE HPLC peak ratio ([3]; 0.95M LDEE•HCl, 40° C., 2 hrs, initial pH 5): 0.5443 | LD/LDEE HPLC peak ratio ([3]; 0.95M LDEE•HCl, 40° C., 2 hrs, initial pH 5.3): 0.8361 | LD/LDEE HPLC peak ratio ([3]; 0.95M LDEE•HCl, 40° C., 2 hrs, initial pH 5.6): 1.3007 | LD/LDEE HPLC peak ratio ([3]; 0.95M LDEE•HCl, 40° C., 6 hrs, initial pH 4.2): 0.2872 | LD/LDEE HPLC peak ratio ([3]; 0.95M LDEE•HCl, 40° C., 6 hrs, initial pH 4.4): 0.3618 | LD/LDEE HPLC peak ratio ([3]; 0.95M LDEE•HCl, 40° C., 6 hrs, initial pH 4.6): 0.4867 | LD/LDEE HPLC peak ratio ([3]; 0.95M LDEE•HCl, 40° C., 6 hrs, initial pH 4.8): 0.7068 | LD/LDEE HPLC peak ratio ([3]; 0.95M LDEE•HCl, 40° C., 6 hrs, initial pH 5): 1.0212 | LD/LDEE HPLC peak ratio ([3]; 0.95M LDEE•HCl, 40° C., 6 hrs, initial pH 5.3): 1.6832 | LD/LDEE HPLC peak ratio ([3]; 0.95M LDEE•HCl, 40° C., 6 hrs, initial pH 5.6): 2.7417 | LD/LDEE HPLC peak ratio ([3]; 0.95M LDEE•HCl, 40° C., 24 hrs, initial pH 4.2): 0.7792 | LD/LDEE HPLC peak ratio ([3]; 0.95M LDEE•HCl, 40° C., 24 hrs, initial pH 4.4): 1.0438 | LD/LDEE HPLC peak ratio ([3]; 0.95M LDEE•HCl, 40° C., 24 hrs, initial pH 4.6): 1.4684 | LD/LDEE HPLC peak ratio ([3]; 0.95M LDEE•HCl, 40° C., 24 hrs, initial pH 4.8): 2.2128 | LD/LDEE HPLC peak ratio ([3]; 0.95M LDEE•HCl, 40° C., 24 hrs, initial pH 5): 3.2875 | LD/LDEE HPLC peak ratio ([3]; 0.95M LDEE•HCl, 40° C., 24 hrs, initial pH 5.3): 5.6263 | LD/LDEE HPLC peak ratio ([3]; 0.95M LDEE•HCl, 40° C., 24 hrs, initial pH 5.6): 9.5612 | LD concentration versus estimated saturation concentration ([3]; 0.95 M and 0.48 M, 40° C., 24 hrs, up to about pH 5.5): remained below the estimated saturation concentration | % of LDEE.HCl hydrolyzed in the 21 week period, in addition to initial 0.16% ([3]; 2.4 M, pH 4.0, about 4° C.): 1.34% | % of LDEE.HCl hydrolyzed in the 21 week period, in addition to initial 0.15% ([3]; 2.5 M, pH 3.0, about 4° C.): 0.36% | % of the LDEE.HCl hydrolyzed to LD ([3]; 2.5 M, pH 4.5 citrate, 24 hours at 23±2° C.): 0.39%
